Experimental data taken from patent US20230277603A1, “VEILLONELLA PARVULA STRAIN AS AN ORAL THERAPY FOR NEUROINFLAMMATORY DISEASES” (Evelo Biosciences, Inc., priority 2020, published 2023).

Tested on: relapse-remitting EAE model induced with PLP139-151 peptide in SJL mice
Assay: SJL EAE model, therapeutic treatment (Example 3), clinical results
Type: in vivo
Conditions: for MMS ± SD: Day 0-42; for MMS ± SD / Incidence of relapse (%) / MMS of relapse period ± SD (Days 18-42) / End % body weight ± SD / End score ± SD: PO QD day ~11 - day 42; for MMS until Day 17 ± SD: acute phase, PO QD from day ~11; for End % body weight ± SD / End score ± SD: end of study
Protocol: The SJL EAE model is a Th17/Th1-mediated mouse model of relapsing-remitting neuroinflammatory disease that is induced via immunization with proteolipid protein (PLP), a major protein constituent of CNS myelin. Disease pathology is due to infiltration of immune cells in the CNS leading to decreased motor function and paralysis. Briefly, in this model mice are injected subcutaneously with an emulsion of PLP-peptide plus CFA and intraperitoneally with pertussis toxin on day 0. Acute neuroinflammatory disease develops between day 10 to day 16, and the relapsing-remitting disease phase occurs from day 20 to day 45. Mice are dosed daily from the day of sensitization through the end of the study by oral gavage. In a therapeutic model, dosing of the mice begins on the second day of disease (~ Day 11 after disease induction). Mice are scored daily for a decrease in motor function and complete paralysis in the tail and limbs. Histopathology is carried out to score the frequency of inflammatory infiltrates and demyelination in the spinal cord.
The model details and read-outs, and methods are described below. Treatment began two days after disease onset, around day ~11 (mice were enrolled on the second day of disease for each mouse).
Experimental Autoimmune Encephalomyelitis. Female SJL mice (8-10 weeks old) were subcutaneously injected at four sites with myelin proteolipid protein (PLP) 139-151 in CFA emulsion (0.05 mL/injection site; ~0.5 mg PLP PLP139-151/mL; Hooke Laboratories; EK-2120). Following immunization, EAE induction was completed by intraperitoneal injections of pertussis toxin (6 µg/mL; 0.1 mL/mouse) within 2 hours of immunization. Mice were randomized into groups and monitored for EAE clinical score over the course of 42 days. Disease progression was scored blinded of treatment or prior measurements. Disease severity was scored using standard EAE criteria: 0 (normal); 1 (loss of tail tone); 2 (hind limb weakness); 3 (hind limb paralysis); 4 (hind limb paralysis and forelimb paralysis or weakness); 5 (morbidity/death). Mice were observed daily for clinical symptoms.
• Vehicle (anaerobic sucrose buffer) PO QD day ~11 - day 42 • G.I. Strain A 10 mg/dose PO QD day ~11 - day 42 • Fingolimod, 1 mg/kg PO QD day ~11 - day 42 • Fingolimod, 0.1 mg/kg PO QD day ~11 - day 42
G.I. Strain A was prepared as a lyophilized powder and was gamma irradiated prior to use.

[1] = Strain A 10 mg/dose, Fingolimod 1 mg/kg

In the case of `CCCCCCCCc1ccc(CCC(N)(CO)CO)cc1` [Fingolimod], the “MMS ± SD” value (Fingolimod 0.1 mg/kg) is reported as 3.20±0.70, the “MMS ± SD” value [1] is reported as 3.13±0.52 and the “Incidence of relapse (%)” value (Fingolimod 0.1 mg/kg) is reported as 28.6%. For the same compound, the “MMS of relapse period ± SD (Days 18-42)” value (Fingolimod 0.1 mg/kg) was 1.77±1.53, the “Incidence of relapse (%)” value [1] was 0% and the “MMS of relapse period ± SD (Days 18-42)” value [1] was 0.83±0.67. The “MMS until Day 17 ± SD” value (Fingolimod 0.1 mg/kg) was 3.13 ± 0.69, the “MMS until Day 17 ± SD” value [1] was 3.13±0.52 and the “End % body weight ± SD” value (Fingolimod 0.1 mg/kg) was 95.2±11.1%. For the same compound, the “End score ± SD” value (Fingolimod 0.1 mg/kg) was 0.97±1.45, the “End % body weight ± SD” value [1] was 101.8±12.0% and the “End score ± SD” value [1] was 0.10±0.21.
